Measured values published in ChEMBL document CHEMBL3430912, “GSK Tres Cantos Anti-Kinetoplastid Screening (TCAKS) Data”.

Key:
[1] = GSK_TCAKS: pIC50 HepG2 human cell line viability assay using luminiscence. […] Seeding density was checked to ensure that new mono-layers were not more than 50% confluent at the time of harvesting. Cell suspension was added to 500 mL of the same medium at a final density of 1.2 * 10^5 cells/mL. This cell suspension was dispensed (25 uL, 3000 cells per well) into 384-well clear-bottom plates using a Multidrop Combi dispenser. Prior to addition of the cell suspension, the screening compounds (250 nL) were pre-dispensed into the plates with an Echo liquid handler. Plates were incubated for 48 h at 37C, 5% CO2. After incubation, plates equilibrated at room temperature for 30 min before proceeding to develop the luminescent signal. The signal developer, CellTiter-Glo Reagent, was allowed to equilibrate at room temperature for 30 min and added to the plates (25uL per well) using a Multidrop Combi dispenser. Plates were left for 10 min at room temperature for stabilization and then read using a ViewLux.; format: toxicity, cell-based
[2] = test system: Trypanosoma cruzi; assay: (§1) GSK_TCAKS: pIC50 Trypanosoma cruzi Imaging: Amastigotes/Cell. […] Cells were then washed once with PBS before infection. T. cruzi trypomastigotes, collected at days 5 to 8 after infection from LLC-MK2 parasite infected cultures, were allowed to swim out for 4h at 37C from a centrifuged pellet (2,500 rpm/10 min/room temperature). Trypomastigotes were then collected and counted in a CASY Cell Counter. Trypomastigotes, in supplemented DMEM, were added to H9c2 cultures in a multiplicity of infection of 1 and incubated for 18 h. Cells were washed once with PBS before incubation of the infected H9c2 monolayer with trypsin (Life-Technologies) to detach cells from the flask. Cells were counted in a CASY Cell Counter using a 150 um capillary and their density set at 5 * 10^4 cells per mL in supplemented assay DMEM. Infected H9c2 were dispensed into 384-well poly-lysine coated assay plates at 50uL per well using a Multidrop Combi dispenser. After seeding them, the plates were incubated at 37C, 5% CO2 for 72h. Cultures were then fixed and stained by addition of 50 uL of a solution containing 8% formaldehyde and 4 uM DRAQ5 DNA dye (BioStatus, UK) per well. […] Five images were collected per well for reliable statistical analysis. Automated image analysis was performed with a script developed on Acapella High Content Imaging and Analysis Software (PerkinElmer). Output: number of amastigotes per cell as infection level measurement.; format: functional, organism-based, Rattus norvegicus; conditions: H9c2, 4 h
[3] = test system: Trypanosoma brucei brucei; assay: GSK_TCAKS: pIC50 Trypanosoma brucei viability assay using fluorescence intensity. Assay plates (1536-well) were prepared by dispensing 25nL of compound solution per well using an Echo acoustic dispenser (Labcyte).; format: functional, organism-based; conditions: Lister 427, 2 h
[4] = test system: Leishmania donovani; assay: (§2) GSK_TCAKS: pIC50 Leishmania donovani Imaging: Amastigotes/Macrophages. Assay plates (384-well) were prepared by adding 250nL of compound to each well. For single shot assay, the final compound concentration was 5 uM. […] Automated image analysis was performed with a script developed on Acapella High Content Imaging and Analysis Software (PerkinElmer). Output: Average number of amastigotes per macrophage cell were reported for each well.; format: functional, organism-based, Homo sapiens; conditions: THP-1
[5] = test system: Leishmania donovani; assay: as §2, with “THP-1 Host Macrophages.” for “Amastigotes/Macrophages.”, “THP-1” for “Average number of amastigotes per macrophage”, “cell count” for “cell”; format: functional, organism-based, Homo sapiens
[6] = test system: Trypanosoma cruzi; assay: as §1, with “H2C9” for “Trypanosoma cruzi”, “H9c2 Host Cardiomyocytes.” for “Amastigotes/Cell.”, “Number” for “number”, “H9c2 Host Cardiomyocytes nuclei to determine drug-related cytotoxicity.” for “amastigotes per cell as infection level measurement.”; format: functional, organism-based, Rattus norvegicus; conditions: H9c2, 4 h
[7] = target: Sterol 14-alpha demethylase (Trypanosoma cruzi (strain CL Brener), UniProt Q7Z1V1); assay: GSK_TCAKS: pIC50 CYP51 from Trypanosoma cruzi.; format: functional
[8] = test system: Trypanosoma cruzi; assay: GSK_TCAKS: pIC50 Trypanosoma cruzi viability assay using beta-GAL activity. This assay was run at single shot at 5uM compound concentration per well. The biological reagents consisted of NIH-3T3 host cells and trypomastigotes parasitic cells; both cell types were set to a 3.3 * 10^5 cells/mL dilution in assay DMEM by means of a CASY cell counter device using a 60um capillary. 6 uL of the mixture were dispensed per well (about 1 * 10^3 host-cells and 1 * 10^3 parasites) with a Multidrop Combi dispenser. […] In all wells, the percentage of DMSO never exceeded 0.5%. Plates incubated for four days at 37C, 5% CO2. The substrate used for the assay fluorescence intensity (FLINT) readout was resorufin-beta-D-galactopiranoside (Sigma-Aldrich) at 5uM per well. It was diluted in PBS supplemented with the soft detergent Igepal (Fluka).; format: functional, organism-based, Mus musculus; conditions: Tulahuen, NIH3T3
[9] = test system: Trypanosoma cruzi; assay: GSK_TCAKS: pIC50 Trypanosoma cruzi Imaging: Infected Cells. […] Cells were then washed once with PBS before infection. T. cruzi trypomastigotes, collected at days 5 to 8 after infection from LLC-MK2 parasite infected cultures, were allowed to swim out for 4h at 37C from a centrifuged pellet (2,500 rpm/10 min/room temperature). Trypomastigotes were then collected and counted in a CASY Cell Counter. Trypomastigotes, in supplemented DMEM, were added to H9c2 cultures in a multiplicity of infection of 1 and incubated for 18 h. Cells were washed once with PBS before incubation of the infected H9c2 monolayer with trypsin (Life-Technologies) to detach cells from the flask. Cells were counted in a CASY Cell Counter using a 150 um capillary and their density set at 5 * 10^4 cells per mL in supplemented assay DMEM. Infected H9c2 were dispensed into 384-well poly-lysine coated assay plates at 50uL per well using a Multidrop Combi dispenser. After seeding them, the plates were incubated at 37C, 5% CO2 for 72h. Cultures were then fixed and stained by addition of 50 uL of a solution containing 8% formaldehyde and 4 uM DRAQ5 DNA dye (BioStatus, UK) per well. […] Five images were collected per well for reliable statistical analysis. Automated image analysis was performed with a script developed on Acapella High Content Imaging and Analysis Software (PerkinElmer). Output: percentage of infected cells per well as a second infection marker.; format: functional, organism-based, Rattus norvegicus; conditions: H9c2, 4 h
[10] = test system: Trypanosoma brucei brucei; assay: GSK_TCAKS: pIC50 Trypanosoma brucei viability assay using luminiscence. Assay plates (1536-well) were prepared. T. brucei cultures were harvested and counted in a CASY cell counter. A parasite suspension was prepared at a final concentration of 5 * 10^4 cells/mL in complete HMI9 medium and 6uL was dispensed to all wells containing compounds using a Multidrop Combi dispenser. 6uL of HMI9 media with 0.4% DMSO were dispensed to control columns. Plates were incubated for 24 h at 37C, 5% CO2 then tempered for 10 min at room temperature. ATP content was quantified by adding 4 uL of CellTiter-Glo Reagent (Promega) according to the manufacturer's instructions. Luminescence was measured using a ViewLux.; format: functional, organism-based; conditions: Lister 427, CASY
[11] = test system: Leishmania donovani; assay: GSK_TCAKS: pIC50 Leishmania donovani viability assay using fluorescence intensity. Assay plates (1536-well) were prepared by adding 30nL per well of compound. For single shot assay, the final compound concentration was 5uM. […] Briefly, eGFP LdBOB axenic amastigotes were harvested, fixed and counted in a CASY cell counter (Roche-Applied Science). A final concentration of 1.5 * 10^5 cells per well were prepared in amastigote media containing 500 U/mL penicillin/streptomycin (Invitrogen) and 6uL was dispensed to each experimental well using a Multidrop Combi dispenser (Thermo Scientific). 6uL of assay media was dispensed to control columns used as reference for 100% compound response. Following incubation for 72 h at 37C, 5% CO2, 2 uL of resazurin was added to each well at a final concentration of 0.5 mM in phosphate buffered saline (PBS) with IGEPAL (Sigma-Aldrich), 0.05% (v/v).; format: functional, organism-based
[12] = test system: Leishmania donovani; assay: as §2, with “Infected Macrophages.” for “Amastigotes/Macrophages.”, “Percent” for “Average number”, “infected” for “amastigotes per”, “cells” for “cell”; format: functional, organism-based, Homo sapiens; conditions: THP-1

Sequence of Sterol 14-alpha demethylase (Q7Z1V1 whole entry): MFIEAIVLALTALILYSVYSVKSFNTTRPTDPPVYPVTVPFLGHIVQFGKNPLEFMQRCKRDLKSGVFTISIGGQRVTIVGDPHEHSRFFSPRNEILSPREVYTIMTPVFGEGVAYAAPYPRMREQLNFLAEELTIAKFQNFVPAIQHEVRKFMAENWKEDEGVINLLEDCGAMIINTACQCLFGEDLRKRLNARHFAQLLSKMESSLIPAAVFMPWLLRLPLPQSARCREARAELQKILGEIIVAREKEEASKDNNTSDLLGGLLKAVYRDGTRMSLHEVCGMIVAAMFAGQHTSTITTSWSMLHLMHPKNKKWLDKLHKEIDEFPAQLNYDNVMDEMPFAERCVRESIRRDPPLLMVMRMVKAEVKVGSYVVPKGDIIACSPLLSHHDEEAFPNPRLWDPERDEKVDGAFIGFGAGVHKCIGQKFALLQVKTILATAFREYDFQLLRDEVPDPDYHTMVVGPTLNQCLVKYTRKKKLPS

| SMILES | IC50 at 48 h [1] | IC50 [2] | IC50 [3] | IC50 [4] | IC50 [5] | IC50 [6] | IC50 [7] | IC50 [8] | IC50 [9] | IC50 [10] | IC50 [11] | IC50 [12] |
| --- | --- | --- | --- | --- | --- | --- | --- | --- | --- | --- | --- | --- |
| CCOc1ccc(Nc2ccc(S(=O)(=O)N3CCN(C)CC3)cc2[N+](=O)[O-])cc1OCC | > 100 µM | 3.16 µM | 6.31 µM | 5.01 µM | 12.6 µM | > 50.1 µM | 31.6 µM | 7.94 µM | > 50.1 µM | 31.6 µM | 0.794 µM | 7.94 µM |
| Cc1cc(C)n(-c2nc(NC(C)C)nc(NC(C)(C)C)n2)n1 | > 100 µM | 0.501 µM | 20 µM | 3.98 µM | 6.31 µM | 0.2 µM | > 100 µM | 2.24 µM | 1.58 µM | 12.6 µM | 3.16 µM | 5.01 µM |
| Cc1cc(NC(=O)c2ccc([N+](=O)[O-])s2)ccc1Br | 39.8 µM | 0.251 µM | 0.316 µM | 1.58 µM | 15.8 µM | 2.51 µM | 10 µM | 0.251 µM | 0.398 µM | 5.01 µM | 3.16 µM | 2.51 µM |
| CS(=O)(=O)c1ccccc1C(=O)N(Cc1ccccc1)c1ccccc1 | > 100 µM | 39.8 µM | 0.398 µM | 15.8 µM | > 50.1 µM | > 50.1 µM | 20 µM | 50.1 µM | > 50.1 µM | 0.631 µM | 15.8 µM | > 50.1 µM |
| Cc1ccc(Nc2nc(N)nc(CNC(c3nc4ccccc4[nH]3)C(C)C)n2)cc1 (centres undefined) | > 100 µM | 5.01 µM | 7.94 µM | 1.26 µM | 25.1 µM | > 50.1 µM | 50.1 µM | 1 µM | 7.94 µM | 5.01 µM | 3.98 µM | 2 µM |
| O=C(Nc1ccc(S(=O)(=O)N2CCCC2)cc1)c1ccc([N+](=O)[O-])s1 | 6.31 µM | 0.2 µM | 0.158 µM | 1 µM | > 50.1 µM | 1.58 µM | > 100 µM | 0.2 µM | 0.2 µM | 0.2 µM | 7.94 µM | 1.58 µM |
| Cc1ccc(-c2csc(NC(=O)C=Cc3ccc(S(=O)(=O)N4CCOCC4)cc3)n2)o1 | > 100 µM | 10 µM | 3.16 µM | 0.794 µM | > 50.1 µM | 31.6 µM | 20 µM | 7.94 µM | 10 µM | 5.01 µM | 6.31 µM | 5.01 µM |
| O=C(Nc1nc2cc(Cl)ccc2o1)c1cccc(Cl)c1 | > 100 µM | 0.631 µM | 0.794 µM | > 50.1 µM | 6.31 µM | 2.51 µM | > 100 µM | 0.794 µM | 0.794 µM | 0.794 µM | 0.398 µM | > 50.1 µM |
| O=C(NCc1ccc(Cl)cc1)C1CN(C(=O)c2ccc(F)cc2)CCS1 (centres undefined) | > 100 µM | 31.6 µM | 0.794 µM | > 50.1 µM | > 50.1 µM | > 50.1 µM | 12.6 µM | 25.1 µM | 39.8 µM | 0.631 µM | > 50.1 µM | > 50.1 µM |
| O=C(Nc1cccc(Cl)c1)Nc1ccc([N+](=O)[O-])cc1Cl | 31.6 µM | 1.58 µM | 2.51 µM | 2 µM | 25.1 µM | 3.98 µM | 5.01 µM | 1.26 µM | 2 µM | 3.16 µM | 6.31 µM | 3.16 µM |
| NCC(Cc1ccccc1)NC(=O)c1cnc(-c2c[nH]c3ncccc23)s1 (centres undefined) | 79.4 µM | 20 µM | 0.398 µM | 12.6 µM | 6.31 µM | 0.631 µM | 1 µM | 2 µM | > 50.1 µM | 1 µM | > 50.1 µM | 15.8 µM |
| Cc1ccc(NC(=O)c2ccnc(N3CCCC3)c2)cc1-c1cc(C(N)=O)ccc1C | > 100 µM | 3.16 µM | 0.1 µM | 25.1 µM | 31.6 µM | > 50.1 µM | 3.98 µM | 6.31 µM | 10 µM | 0.251 µM | 25.1 µM | 39.8 µM |
| Cc1nnc(-c2nc(NCc3ccc(Cl)cc3)c3cccnc3c2O)[nH]1 | 15.8 µM | 1.26 µM | 0.631 µM | 0.501 µM | 6.31 µM | 25.1 µM | 15.8 µM | 0.631 µM | 0.794 µM | 0.794 µM | 2 µM | 0.501 µM |
| CC(=O)Nc1ccc(-c2cnc(N)c(-c3nc4ccc(F)cc4[nH]3)c2)cc1 | 10 µM | > 50.1 µM | 0.631 µM | 0.501 µM | 7.94 µM | 0.794 µM | 63.1 µM | 0.631 µM | > 50.1 µM | 2 µM | 6.31 µM | 1 µM |
| Cc1ccc(NC(=O)c2ccnc(N3CCCC3)c2)cc1-c1ccsc1C(N)=O | > 100 µM | 7.94 µM | 0.0631 µM | > 50.1 µM | > 50.1 µM | > 50.1 µM | 1.26 µM | 12.6 µM | 12.6 µM | 0.0631 µM | > 50.1 µM | > 50.1 µM |
| Cc1nc(-c2ccc3c(c2)OCO3)sc1C(=O)NCc1ccc2c(c1)OCO2 | > 100 µM | 0.501 µM | 10 µM | 0.794 µM | > 50.1 µM | > 50.1 µM | 5.01 µM | 3.55 µM | 0.794 µM | > 39.8 µM | 2 µM | 0.251 µM |
| Cc1cc(C)n(-c2nc(NC(C)(C)C)nc(N3CCOCC3)n2)n1 | 100 µM | 3.16 µM | 12.6 µM | 3.98 µM | > 50.1 µM | 1.26 µM | > 100 µM | 5.01 µM | 10 µM | 3.98 µM | 6.31 µM | 7.94 µM |
